# Data reported in ChEMBL document CHEMBL1926648, “Synthesis and biological activity of dihydroimidazole and 3,4-dihydrobenzo[4,5]imidazo[1,2-a][1,3,5]triazins” (2012).
# Assays:
# Assay type in all cases: functional
# Conditions in all cases: read-out: IZ
# Escherichia coli [1] = test: Antibacterial activity against Escherichia coli at 50000 ppm after 24 hrs by agar diffusion method
# Escherichia coli [2] = test: Antibacterial activity against Escherichia coli at 30000 ppm after 24 hrs by agar diffusion method
# Escherichia coli [3] = test: Antibacterial activity against Escherichia coli at 10000 ppm after 24 hrs by agar diffusion method
# Bacillus subtilis [4] = test: Antibacterial activity against Bacillus subtilis at 50000 ppm after 24 hrs by agar diffusion method
# Pseudomonas aeruginosa [5] = test: Antibacterial activity against Pseudomonas aeruginosa at 30000 ppm after 24 hrs by agar diffusion method
# Staphylococcus aureus [6] = test: Antibacterial activity against Staphylococcus aureus at 50000 ppm after 24 hrs by agar diffusion method
# Bacillus cereus [7] = test: Antibacterial activity against Bacillus cereus at 50000 ppm after 24 hrs by agar diffusion method
# Kocuria rosea [8] = test: Antibacterial activity against Micrococcus roseus at 50000 ppm after 24 hrs by agar diffusion method
# Bacillus cereus [9] = test: Antibacterial activity against Bacillus cereus at 30000 ppm after 24 hrs by agar diffusion method
# Staphylococcus aureus [10] = test: Antibacterial activity against Staphylococcus aureus at 30000 ppm after 24 hrs by agar diffusion method
# Kocuria rosea [11] = test: Antibacterial activity against Micrococcus roseus at 30000 ppm after 24 hrs by agar diffusion method
# Staphylococcus aureus [12] = test: Antibacterial activity against Staphylococcus aureus at 10000 ppm after 24 hrs by agar diffusion method
# Pseudomonas aeruginosa [13] = test: Antibacterial activity against Pseudomonas aeruginosa at 10000 ppm after 24 hrs by agar diffusion method
# Pseudomonas aeruginosa [14] = test: Antibacterial activity against Pseudomonas aeruginosa at 50000 ppm after 24 hrs by agar diffusion method
# Micrococcus luteus [15] = test: Antibacterial activity against Micrococcus luteus at 50000 ppm after 24 hrs by agar diffusion method
# Micrococcus luteus [16] = test: Antibacterial activity against Micrococcus luteus at 30000 ppm after 24 hrs by agar diffusion method
# Bacillus subtilis [17] = test: Antibacterial activity against Bacillus subtilis at 30000 ppm after 24 hrs by agar diffusion method
# Bacillus subtilis [18] = test: Antibacterial activity against Bacillus subtilis at 10000 ppm after 24 hrs by agar diffusion method
# Kocuria rosea [19] = test: Antibacterial activity against Micrococcus roseus at 10000 ppm after 24 hrs by agar diffusion method
# Bacillus cereus [20] = test: Antibacterial activity against Bacillus cereus at 10000 ppm after 24 hrs by agar diffusion method
# Micrococcus luteus [21] = test: Antibacterial activity against Micrococcus luteus at 10000 ppm after 24 hrs by agar diffusion method
Structure (SMILES),zone of inhibition at 50000 ppm (Escherichia coli [1]),zone of inhibition at 30000 ppm (Escherichia coli [2]),zone of inhibition at 10000 ppm (Escherichia coli [3]),zone of inhibition at 50000 ppm (Bacillus subtilis [4]),zone of inhibition at 30000 ppm (Pseudomonas aeruginosa [5]),zone of inhibition at 50000 ppm (Staphylococcus aureus [6]),zone of inhibition at 50000 ppm (Bacillus cereus [7]),zone of inhibition at 50000 ppm (Kocuria rosea [8]),zone of inhibition at 30000 ppm (Bacillus cereus [9]),zone of inhibition at 30000 ppm (Staphylococcus aureus [10]),zone of inhibition at 30000 ppm (Kocuria rosea [11]),zone of inhibition at 10000 ppm (Pseudomonas aeruginosa [13]),zone of inhibition at 50000 ppm (Pseudomonas aeruginosa [14]),zone of inhibition at 50000 ppm (Micrococcus luteus [15]),zone of inhibition at 30000 ppm (Micrococcus luteus [16]),zone of inhibition at 30000 ppm (Bacillus subtilis [17]),zone of inhibition at 10000 ppm (Bacillus subtilis [18]),zone of inhibition at 10000 ppm (Kocuria rosea [19]),zone of inhibition at 10000 ppm (Bacillus cereus [20]),zone of inhibition at 10000 ppm (Micrococcus luteus [21]),also measured
Oc1c[nH]/c(=N/c2nc3ccccc3[nH]2)[nH]1,13 mm,8 mm,6 mm,7 mm,8 mm,13 mm,10 mm,8 mm,5 mm,7 mm,6 mm,5 mm,11 mm,9 mm,5 mm,–,–,–,–,–,zone of inhibition at 10000 ppm (Staphylococcus aureus [12]): 2 mm
CC1(C)[C@@H]2CC[C@@]1(C)C1(C2)NC(N)=Nc2nc3ccccc3n21 (some centres not stated),12 mm,9 mm,4 mm,6 mm,–,8 mm,4 mm,5 mm,–,3 mm,2 mm,–,–,–,–,5 mm,3 mm,–,–,–,–
Cc1c[nH]/c(=N/c2nc3ccccc3[nH]2)[nH]1,8 mm,4 mm,1 mm,15 mm,4 mm,6 mm,12 mm,9 mm,9 mm,3 mm,7 mm,–,7 mm,8 mm,7 mm,13 mm,10 mm,5 mm,6 mm,6 mm,–
NC1=Nc2nc3ccccc3n2C2(NC(=O)CS2)N1 (configuration not stated),8 mm,5 mm,–,16 mm,8 mm,8 mm,11 mm,10 mm,8 mm,5 mm,7 mm,5 mm,11 mm,7 mm,3 mm,13 mm,9 mm,4 mm,6 mm,–,zone of inhibition at 10000 ppm (Staphylococcus aureus [12]): 3 mm
Nc1c[nH]/c(=N/c2nc3ccccc3[nH]2)[nH]1,14 mm,8 mm,3 mm,6 mm,7 mm,15 mm,4 mm,12 mm,–,9 mm,8 mm,4 mm,9 mm,8 mm,4 mm,–,–,6 mm,–,–,zone of inhibition at 10000 ppm (Staphylococcus aureus [12]): 4 mm
NC1=NC2(CCCCC2)n2c(nc3ccccc32)N1,18 mm,15 mm,12 mm,13 mm,4 mm,5 mm,9 mm,5 mm,4 mm,–,–,–,5 mm,12 mm,7 mm,11 mm,7 mm,–,–,7 mm,–
NC1=Nc2nc3ccccc3n2C2(NC(=O)CC(=O)N2)N1,15 mm,11 mm,8 mm,14 mm,6 mm,8 mm,7 mm,7 mm,4 mm,5 mm,4 mm,2 mm,9 mm,6 mm,4 mm,10 mm,6 mm,1 mm,1 mm,–,–
NC1=NC2(CCCC2)n2c(nc3ccccc32)N1,20 mm,17 mm,12 mm,15 mm,–,6 mm,9 mm,8 mm,5 mm,4 mm,3 mm,–,5 mm,12 mm,7 mm,12 mm,9 mm,–,–,7 mm,–
CC1=NN(c2ccccc2)C2(C1)NC(N)=Nc1nc3ccccc3n12 (configuration not stated),16 mm,13 mm,8 mm,9 mm,4 mm,4 mm,4 mm,8 mm,–,–,3 mm,–,6 mm,11 mm,9 mm,3 mm,–,–,–,5 mm,–
c1ccc(-c2c[nH]/c(=N/c3nc4ccccc4[nH]3)[nH]2)cc1,8 mm,6 mm,4 mm,14 mm,6 mm,9 mm,9 mm,10 mm,8 mm,5 mm,8 mm,4 mm,11 mm,3 mm,–,11 mm,9 mm,3 mm,6 mm,–,–
N#Cc1[nH]/c(=N/c2nc3ccccc3[nH]2)[nH]c1N,19 mm,13 mm,8 mm,16 mm,8 mm,7 mm,14 mm,9 mm,10 mm,7 mm,7 mm,6 mm,9 mm,9 mm,7 mm,11 mm,8 mm,4 mm,6 mm,4 mm,zone of inhibition at 10000 ppm (Staphylococcus aureus [12]): 3 mm
Clc1c[nH]/c(=N/c2nc3ccccc3[nH]2)[nH]1,18 mm,13 mm,9 mm,14 mm,–,9 mm,6 mm,8 mm,–,5 mm,3 mm,–,2 mm,4 mm,–,10 mm,6 mm,–,–,–,–
